Experiments:
[1] = system: mitotic spindle structure in yeast; test: Pathological and microscopic examination of Griseofulvin treated yeast versus CIK1 disrupted yeast; type: cell-based
From the text: CIK1 codes for a protein described in the yeast proteome database (YPD) as a coiled-coil protein of the spindle pole body involved in spindle formation and the congression (nuclear migration) step of karyogamy^(13). Since the action of Griseofulvin is known to affect mitotic spindle formation, which is in agreement with the function of CIK1^(14), we performed a pathological examination of a yeast strain with a disrupted CIK1 gene and yeast affected by Griseofulvin.

[2] = system: mitotic spindle structure in fungi; conditions: cited from earlier work
yeast strain BY4741 = test: Drug response full-genome cDNA microarray gene expression experiments; type: cell-based, Saccharomyces cerevisiae; conditions: among 552 genes which differed in expression between drug treated and normal yeast; dosages of 10, 50 and 100 mg in 10 ml of DMF; 0, 15, 30, 45 and 60 minutes
Protocol: The yeast strain used in this study is BY4741. To monitor the gene expression profile, cells were pre-grown at 30° C. in YPD (2% polypeptone, 1% yeast extract and 2% glucose) to mid-exponential phase and were exposed with Griseofulvin by adding it to the medium to the concentrations at 0, 10, 25, 50, and 100 mg/ml. The exposed cells were harvested at 0, 15, 30, 45 and 60 min after addition by Griseofulvin and used for RNA extraction. Total RNAs were extracted by the hot-phenol method.
We measured the quantities of 5871 mRNA species from 20 drug treated strains by cDNA microarray assay. A difference in fluorescent strength between Cy3, Cy5 causes bias of the expression quantity ratio. We normalized the expression quantity ratios of each expression profile. […] The logarithm value of the ratio was used to indicate the standard expression level, therefore we found the logarithm value of ratio and calculated the average and standard deviation of these log values (see table1). The Standard Deviation (SD) of expression levels of all spotted genes from the UME6 (YDR207C) disruptant expression array for which UME6 is defined as a “Global Regulator” in YPD^(33) disruptant was 0.4931, therefore we recognized that there are an unacceptable number of errors in array data whose overall SD was larger than 0.5 and eliminated such experiments from analysis. […]

CIK1 = test: Boolean network analysis of joint drug response and gene disruption expression matrices (virtual gene); type: cell-based, Saccharomyces cerevisiae
From the text: In addition to the Boolean methods for gene disruption experiments reported elsewhere^(11), we created a gene expression matrix E from a set of the drug treatment experiments combined with disruptant expression data. In the case of drug generated perturbation, we created a “virtual” gene to represent the drug affect analogous to a gene disruption. We then were able to use standard disruption matrix algorithms designed for disruption based data.
In YPD, 314 genes were defined as “transcription factors”, and 98 of these have previously been studied for control mechanism. The expression profile data of 552 genes including the genes that are controlled by these 98 “transcription factors” were selected from 5871 profiles. Thus we constructed the gene regulatory network from the expression profile data set based on the values of these 552 genes in 120 gene disruption experiments and 20 drug treatment experiments.
However, the use of gene regulatory network models, combined with the drug perturbation data allows for a hierarchical gene regulatory view of the drug's interaction with genes in the transcriptome. To generate this gene network drug perturbation data, we first created a full genome expression library of 542 single-gene disruption mutants. The 120 array data selected from the library was logically joined with the array matrices generated from the Griseofulvin experiments. […]

Structure (SMILES): COC1=CC(=O)C[C@@H](C)[C@]12Oc1c(Cl)c(OC)cc(OC)c1C2=O [Griseofulvin]
- mitotic spindle structure compared with CIK1 deleted yeast ([1]; microscopic examination): very similar changes of the spindle body and surrounding organizational structures
- lethality to yeast ([1]; normal physiological dosage): neither the treatment with Griseofulvin at normal physiological dosage nor the disruption of CIK1 are lethal
- effect on mitotic spindle structure [2]: disrupts mitotic spindle structure in fungi to lead to metaphase arrest
- genes downregulated by over a 2 sigma threshold (yeast strain BY4741): 183 genes
- suppression of CIK1 expression (CIK1; among the 8 first-effect genes, across the experiments): strongest suppression effects
- genes consistently and significantly suppressed as first effects (CIK1; at each time and drug concentration): 8 genes

Reference: patent US20030219764A1, “Biological discovery using gene regulatory networks generated from multiple-disruption expression libraries” (priority 2001, published 2003)
